Results from patent publication US9295735B2, “Liposomal composition for convection-enhanced delivery to the central nervous centre” (MEDGENESIS THERAPEUTIX, INC., priority 2008, dated 2016).
Like-named read-outs stand apart in the source and are kept apart here.

Legend:
[1] = Brain tissue pharmacokinetics of Ls-TPT formulations and free topotecan after intracerebral CED (HPLC of total topotecan); format: in vivo, Sprague-Dawley rats
Method: The experiments in this example were performed with research grade material of both liposomal-topotecan (Ls-TPT) and liposomal gadodiamide (Ls-GD). Topotecan (TPT) for free topotecan formulation and for Ls-TPT preparation was obtained from Hisun Pharmaceuticals (Taizhou City, Zhejiang, China). Ls-TPT was provided by Northern Lipids Inc (Burnaby, BC, Canada). In brief, liposomes were composed of distearoylphosphatidylcholine (DSPC), distearoylphosphatidylglycerol (DSPG), and cholesterol at a 7:2:1 molar ratio with 75 to 90 nm target size. Topotecan was remotely loaded (actively encapsulated) into liposomes in response to a transmembrane pH gradient using internal and external buffers consisting of ammonium sulfate 250 mM pH 5.5 and histidine 5 mM/NaCl 145 mM pH 6.0 respectively. Topotecan concentrations of 0.67 and 2.0 mg/mL with a 0.1 and 0.3 (w/w) drug:lipid ratio were respectively targeted assuming a 90-95% drug encapsulation efficiency. A constant total lipid concentration target of 6.7 mg/mL was maintained in both formulations. The manufacturing process is described in details in Example 2.1.2.
For the formulation screening component of this example, the animals were divided in 4 groups based on Ls-TPT formulations or free topotecan as outlined in Table 1.
Rats were anesthetized with either isoflurane (5% for induction; 2.5 to 3.0% for maintenance during surgery) inhalation or a combination of ketamine (60 mg/kg) and xylazine (8 mg/kg) via an intraperitoneal injection. […] Craniectomy was performed using a small electric dental drill with 1-mm diameter burr holes, 0.5 mm anterior and 3 mm left and right from the bregma. […] The test article was injected bilaterally at one site into each striatum.
The brains were removed, placed on ice and the striata dissected using a dorsal approach and the tissue frozen in liquid nitrogen. The tissue was subsequently homogenized with an equal volume of water (1:1 v/v) and then extracted with methanol and stored at −70° C. until shipment to the Sponsor. Tail vein blood was collected (1.0 mL) for the formulation tissue and plasma pharmacokinetics component of this Example.
High performance liquid chromatography (HPLC) of total topotecan (free and liposome-encapsulated) in brain tissue and in plasma was performed by Northern Lipids Inc. (Burnaby, BC, Canada) using an isocratic reversed phase HPLC/UV method. Method details were as follows. Briefly, the animals (n=3) were sacrificed at 1 and 6 hours, 2, 4 and 7 days. The brains were removed, placed on ice, the striata dissected using a dorsal approach and the tissue frozen in liquid nitrogen. Equal volume of ice cold water (1:1 w/w) was added and the thawed tissue was homogenized (Biospec) mechanically for 2 minutes and frozen.

[2] = system: various malignant glioma cells lines; conditions: read-out: 50% inhibitory concentration (IC50), cited from earlier work
[3] = normal rat brain tissue after CED, non-compartmental analysis

- concentration at 1 h ([1]; Sprague-Dawley, brain (striatum), normal rat striatum, CED 20 μL per hemisphere, TPT 0.5 mg/mL, 1 hour, read-out: Topotecan brain tissue concentration, Mean ± STD): 44.3 ± 39.4 µM
- concentration at 6 h ([1]; Sprague-Dawley, brain (striatum), normal rat striatum, CED 20 μL per hemisphere, TPT 0.5 mg/mL, 6 hours, read-out: Topotecan brain tissue concentration, Mean ± STD): 15.6 ± 13.8 µM
- concentration at 48 h ([1]; Sprague-Dawley, brain (striatum), normal rat striatum, CED 20 μL per hemisphere, TPT 0.5 mg/mL, 48 hours, read-out: Topotecan brain tissue concentration, Mean ± STD): 0 nM
- concentration at 96 h ([1]; Sprague-Dawley, brain (striatum), normal rat striatum, CED 20 μL per hemisphere, TPT 0.5 mg/mL, 96 hours, read-out: Topotecan brain tissue concentration, Mean ± STD): 0 nM
- concentration at 168 h ([1]; Sprague-Dawley, brain (striatum), normal rat striatum, CED 20 μL per hemisphere, TPT 0.5 mg/mL, 168 hours, read-out: Topotecan brain tissue concentration, Mean ± STD): 0 nM
- AUC(0-last) [1, 3]: 5.5 µg·days/g
- t1/2 [1, 3]: much shorter
- Topotecan brain tissue concentration, Mean ± STD ([1]; normal rat striatum, CED 20 μL per hemisphere, TPT 0.5 mg/mL, 1 hour): 0.0203 ± 0.0181 mg/g of brain tissue
- Topotecan brain tissue concentration, Mean ± STD ([1]; normal rat striatum, CED 20 μL per hemisphere, TPT 0.5 mg/mL, 6 hours): 0.0071 ± 0.0063 mg/g of brain tissue
- Topotecan brain tissue concentration, Mean ± STD ([1]; normal rat striatum, CED 20 μL per hemisphere, TPT 0.5 mg/mL, 48 hours): 0 mg/g of brain tissue
- Topotecan brain tissue concentration, Mean ± STD ([1]; normal rat striatum, CED 20 μL per hemisphere, TPT 0.5 mg/mL, 96 hours): 0 mg/g of brain tissue
- Topotecan brain tissue concentration, Mean ± STD ([1]; normal rat striatum, CED 20 μL per hemisphere, TPT 0.5 mg/mL, 168 hours): 0 mg/g of brain tissue
SMILES: CC[C@@]1(O)C(=O)OCc2c1cc1n(c2=O)Cc2cc3c(CN(C)C)c(O)ccc3nc2-1 [Formulation F4, topotecan]
- IC50 ([2]; exposure over 1 hour): 2400 nM
- IC50 ([2]; exposure over 24 hours): 38 nM
- IC50 ([2]; exposure over 72 hours): 280 nM
- IC50 ([2]; exposure over 120 hours): ≥ 20 nM
